Assay results as given in patent US9834514B2, “Antibiotic sensitivity-restoring and photosensitive agents” (New Mexico Tech Research Foundation, priority 2015, dated 2017).

Columns and labels:
P. aeruginosa = assay: Resensitization to antibiotics (log reduction, TABLE 29); type: cell-based; conditions: compound 20 μM; PME (0.1 μg/mL)
[1] = system: Klebsiella pneumoniae (CRE, ATCC BAA-1705); assay: Time-dependent colony counts of CRE with compounds and PME; type: cell-based; conditions: PME 0.2 μg/mL, compound 20 μM; FIGS. 48, 49
Procedure: The MICs of PME and compounds 8-11 were determined against Klebsiella pneumoniae (CRE, ATCC BAA-1705). […] […] At specific time points, the samples were taken and diluted ten-fold in media. Ten microliters of each dilution was then drip-streaked onto an agar plate and incubated overnight at 37° C. Colony counts were then performed and the CFU/mL were calculated.

VRE = assay: Resensitization to antibiotics (log reduction, TABLE 29); type: cell-based, Enterococcus faecalis
Procedure: In a 96-well microtiter plate, two-fold dilutions were made of each drug (starting with 100 μM) in 100 μL of a cell suspension in TSB. The resulting samples were incubated overnight at 37° C. on a rotary shaking incubator at 100 rpm. The samples were then visually inspected for turbidity. A 20% well volume of MTT reagent (5 mg/mL) was subsequently added, and the samples were incubated for about 20 minutes.

[2] = system: MRSA isolates (S. aureus ATCC 33591, BAA-44, BAA-1707, BAA-1717, BAA-1720, BAA-1747, BAA-1754, BAA-1761, BAA-1763, BAA-1764, BAA-1766); assay: Combination effects of compounds 7-11 and antibiotics on MRSA isolates (turbidity); type: cell-based
Excerpt: Inhibition resulting from co-treatment of a broth suspension with a compound of the invention and an antibiotic was compared to broth suspensions subjected to each individual treatment. A visual observation of inhibition with the unaided eye upon co-treatment of the broth suspensions, based on turbidity, was considered synergistic.
Exceptions to reading complete inhibition of growth included Gram-positive cocci. For Gram-positive cocci, trailing growth was observed. For these species, the MICs were read at the first spot where trailing was observed, and tiny buttons of growth were ignored. […]
Two-fold dilutions of the antibiotics were prepared in a liquid growth medium dispensed in test tubes. […] The antibiotic-containing tubes were inoculated with a standard bacterial suspension of 5×10^5 CFU/mL. Following an overnight incubation (16-20 hrs) at 35±2° C. under ambient air, the tubes were examined for visible bacterial growth based on turbidity. The lowest concentration of antibiotic that prevented growth was determined to be the MIC. An incubation time of 24 hrs was used to determine the MICs of oxacillin and vancomycin.

In the case of `Clc1ccc(Oc2c(-c3ccc(Cl)cc3)[nH]c3ccccc23)cc1` [Compound 10], the “Log Reduction” value (P. aeruginosa) is reported as 2, the “CRE colony populations on simultaneous treatment with PME” value [1] is reported as “reduced the CRE colony populations to sterility” and the “Log Reduction” value (VRE; compound 2 μM, Tetracycline (1 μg/mL)) is reported as 3-4. For the same compound, the “Log Reduction” value (VRE; compound […], Vancomycin (3.5 μg/mL)) was 4, the “combination effect with Gentamycin” value ([2]; MRSA ATCC 33591) was “No Synergy” and the “combination effect with Norfloxacin” value ([2]; MRSA ATCC 33591) was “No Synergy”. For the same compound, the “combination effect with Oxacillin” value ([2]; MRSA ATCC 33591) was “No Synergy”, the “combination effect with Tetracycline” value ([2]; MRSA ATCC 33591) was “No Synergy” and the “combination effect with Vancomycin” value ([2]; MRSA ATCC 33591) was “Susceptible”. For the same compound, the “combination effect with Norfloxacin” value ([2]; MRSA ATCC BAA-44) was “No Synergy”, the “combination effect with Oxacillin” value ([2]; MRSA ATCC BAA-44) was “No Synergy” and the “combination effect with Tetracycline” value ([2]; MRSA ATCC BAA-44) was “Susceptible”. The “combination effect with Vancomycin” value ([2]; MRSA ATCC BAA-44) was “Susceptible”, the “combination effect with Gentamycin” value ([2]; MRSA ATCC BAA-1707) was “Susceptible” and the “combination effect with Norfloxacin” value ([2]; MRSA ATCC BAA-1707) was “Susceptible”. For the same compound, the “combination effect with Oxacillin” value ([2]; MRSA ATCC BAA-1707) was “Susceptible”, the “combination effect with Tetracycline” value ([2]; MRSA ATCC BAA-1707) was “Synergy” and the “combination effect with Vancomycin” value ([2]; MRSA ATCC BAA-1707) was “Susceptible”. The “combination effect with Gentamycin” value ([2]; MRSA ATCC BAA-1717) was “Susceptible”, the “combination effect with Norfloxacin” value ([2]; MRSA ATCC BAA-1717) was “Susceptible” and the “combination effect with Oxacillin” value ([2]; MRSA ATCC BAA-1717) was “Synergy”. The “combination effect with Tetracycline” value ([2]; MRSA ATCC BAA-1717) was “Susceptible”, the “combination effect with Vancomycin” value ([2]; MRSA ATCC BAA-1717) was “Susceptible” and the “combination effect with Gentamycin” value ([2]; MRSA ATCC BAA-1720) was “Susceptible”. The “combination effect with Norfloxacin” value ([2]; MRSA ATCC BAA-1720) was “No Synergy”, the “combination effect with Oxacillin” value ([2]; MRSA ATCC BAA-1720) was “No Synergy” and the “combination effect with Tetracycline” value ([2]; MRSA ATCC BAA-1720) was “Susceptible”. The “combination effect with Vancomycin” value ([2]; MRSA ATCC BAA-1720) was “Susceptible”, the “combination effect with Gentamycin” value ([2]; MRSA ATCC BAA-1747) was “Susceptible” and the “combination effect with Norfloxacin” value ([2]; MRSA ATCC BAA-1747) was “Susceptible”. For the same compound, the “combination effect with Oxacillin” value ([2]; MRSA ATCC BAA-1747) was “Susceptible”, the “combination effect with Tetracycline” value ([2]; MRSA ATCC BAA-1747) was “Susceptible” and the “combination effect with Vancomycin” value ([2]; MRSA ATCC BAA-1747) was “Susceptible”. The “combination effect with Gentamycin” value ([2]; MRSA ATCC BAA-1754) was “Susceptible”, the “combination effect with Norfloxacin” value ([2]; MRSA ATCC BAA-1754) was “Susceptible” and the “combination effect with Oxacillin” value ([2]; MRSA ATCC BAA-1754) was “No Synergy”. The “combination effect with Tetracycline” value ([2]; MRSA ATCC BAA-1754) was “Susceptible”, the “combination effect with Vancomycin” value ([2]; MRSA ATCC BAA-1754) was “Susceptible” and the “combination effect with Gentamycin” value ([2]; MRSA ATCC BAA-1761) was “Susceptible”. For the same compound, the “combination effect with Norfloxacin” value ([2]; MRSA ATCC BAA-1761) was “No Synergy”, the “combination effect with Oxacillin” value ([2]; MRSA ATCC BAA-1761) was “Susceptible” and the “combination effect with Tetracycline” value ([2]; MRSA ATCC BAA-1761) was “Susceptible”. The “combination effect with Vancomycin” value ([2]; MRSA ATCC BAA-1761) was “Susceptible”, the “combination effect with Gentamycin” value ([2]; MRSA ATCC BAA-1763) was “Susceptible” and the “combination effect with Norfloxacin” value ([2]; MRSA ATCC BAA-1763) was “No Synergy”. The “combination effect with Oxacillin” value ([2]; MRSA ATCC BAA-1763) was “No Synergy”, the “combination effect with Tetracycline” value ([2]; MRSA ATCC BAA-1763) was “Susceptible” and the “combination effect with Vancomycin” value ([2]; MRSA ATCC BAA-1763) was “Susceptible”. For the same compound, the “combination effect with Gentamycin” value ([2]; MRSA ATCC BAA-1764) was “Susceptible”, the “combination effect with Norfloxacin” value ([2]; MRSA ATCC BAA-1764) was “Susceptible” and the “combination effect with Oxacillin” value ([2]; MRSA ATCC BAA-1764) was “No Synergy”. The “combination effect with Tetracycline” value ([2]; MRSA ATCC BAA-1764) was “Susceptible”, the “combination effect with Vancomycin” value ([2]; MRSA ATCC BAA-1764) was “Susceptible” and the “combination effect with Gentamycin” value ([2]; MRSA ATCC BAA-1766) was “Susceptible”. For the same compound, the “combination effect with Norfloxacin” value ([2]; MRSA ATCC BAA-1766) was “Susceptible”, the “combination effect with Oxacillin” value ([2]; MRSA ATCC BAA-1766) was “No Synergy” and the “combination effect with Tetracycline” value ([2]; MRSA ATCC BAA-1766) was “Susceptible”. For the same compound, the “combination effect with Vancomycin” value ([2]; MRSA ATCC BAA-1766) was “Susceptible”.
With `Clc1ccc(Oc2c(-c3ccc(Cl)cc3)[nH]c3ccc(Cl)cc23)cc1` [Compound 11] the “Log Reduction” value (P. aeruginosa) was 2, the “CRE colony populations on simultaneous treatment with PME” value [1] was “reduced the CRE colony populations to sterility” and the “Log Reduction” value (VRE; compound 0.5 μM, Norfloxacin ([…])) was 3-4. For the same compound, the “Log Reduction” value (VRE; compound 0.5 μM, Tetracycline (1.5 μg/mL)) was 3, the “Log Reduction” value (VRE; compound 0.5 μM, Vancomycin (3.5 μg/mL)) was 3 and the “combination effect with Gentamycin” value ([2]; MRSA ATCC 33591) was “No Synergy”. The “combination effect with Norfloxacin” value ([2]; MRSA ATCC 33591) was “No Synergy”, the “combination effect with Oxacillin” value ([2]; MRSA ATCC 33591) was “No Synergy” and the “combination effect with Tetracycline” value ([2]; MRSA ATCC 33591) was “No Synergy”. The “combination effect with Vancomycin” value ([2]; MRSA ATCC 33591) was “Susceptible”, the “combination effect with Norfloxacin” value ([2]; MRSA ATCC BAA-44) was “No Synergy” and the “combination effect with Oxacillin” value ([2]; MRSA ATCC BAA-44) was “Synergy”. The “combination effect with Tetracycline” value ([2]; MRSA ATCC BAA-44) was “Susceptible”, the “combination effect with Vancomycin” value ([2]; MRSA ATCC BAA-44) was “Susceptible” and the “combination effect with Gentamycin” value ([2]; MRSA ATCC BAA-1707) was “Susceptible”. The “combination effect with Norfloxacin” value ([2]; MRSA ATCC BAA-1707) was “Susceptible”, the “combination effect with Oxacillin” value ([2]; MRSA ATCC BAA-1707) was “Susceptible” and the “combination effect with Tetracycline” value ([2]; MRSA ATCC BAA-1707) was “Synergy”. For the same compound, the “combination effect with Vancomycin” value ([2]; MRSA ATCC BAA-1707) was “Susceptible”, the “combination effect with Gentamycin” value ([2]; MRSA ATCC BAA-1717) was “Susceptible” and the “combination effect with Norfloxacin” value ([2]; MRSA ATCC BAA-1717) was “Susceptible”. The “combination effect with Oxacillin” value ([2]; MRSA ATCC BAA-1717) was “Synergy”, the “combination effect with Tetracycline” value ([2]; MRSA ATCC BAA-1717) was “Susceptible” and the “combination effect with Vancomycin” value ([2]; MRSA ATCC BAA-1717) was “Susceptible”. The “combination effect with Gentamycin” value ([2]; MRSA ATCC BAA-1720) was “Susceptible”, the “combination effect with Norfloxacin” value ([2]; MRSA ATCC BAA-1720) was “No Synergy” and the “combination effect with Oxacillin” value ([2]; MRSA ATCC BAA-1720) was “No Synergy”. The “combination effect with Tetracycline” value ([2]; MRSA ATCC BAA-1720) was “Susceptible”, the “combination effect with Vancomycin” value ([2]; MRSA ATCC BAA-1720) was “Susceptible” and the “combination effect with Gentamycin” value ([2]; MRSA ATCC BAA-1747) was “Susceptible”. The “combination effect with Norfloxacin” value ([2]; MRSA ATCC BAA-1747) was “Susceptible”, the “combination effect with Oxacillin” value ([2]; MRSA ATCC BAA-1747) was “Susceptible” and the “combination effect with Tetracycline” value ([2]; MRSA ATCC BAA-1747) was “Susceptible”. The “combination effect with Vancomycin” value ([2]; MRSA ATCC BAA-1747) was “Susceptible”, the “combination effect with Gentamycin” value ([2]; MRSA ATCC BAA-1754) was “Susceptible” and the “combination effect with Norfloxacin” value ([2]; MRSA ATCC BAA-1754) was “Susceptible”. For the same compound, the “combination effect with Oxacillin” value ([2]; MRSA ATCC BAA-1754) was “No Synergy”, the “combination effect with Tetracycline” value ([2]; MRSA ATCC BAA-1754) was “Susceptible” and the “combination effect with Vancomycin” value ([2]; MRSA ATCC BAA-1754) was “Susceptible”. For the same compound, the “combination effect with Gentamycin” value ([2]; MRSA ATCC BAA-1761) was “Susceptible”, the “combination effect with Norfloxacin” value ([2]; MRSA ATCC BAA-1761) was “No Synergy” and the “combination effect with Oxacillin” value ([2]; MRSA ATCC BAA-1761) was “Susceptible”. The “combination effect with Tetracycline” value ([2]; MRSA ATCC BAA-1761) was “Susceptible”, the “combination effect with Vancomycin” value ([2]; MRSA ATCC BAA-1761) was “Susceptible” and the “combination effect with Gentamycin” value ([2]; MRSA ATCC BAA-1763) was “Susceptible”. The “combination effect with Norfloxacin” value ([2]; MRSA ATCC BAA-1763) was “No Synergy”, the “combination effect with Oxacillin” value ([2]; MRSA ATCC BAA-1763) was “No Synergy” and the “combination effect with Tetracycline” value ([2]; MRSA ATCC BAA-1763) was “Susceptible”. For the same compound, the “combination effect with Vancomycin” value ([2]; MRSA ATCC BAA-1763) was “Susceptible”, the “combination effect with Gentamycin” value ([2]; MRSA ATCC BAA-1764) was “Susceptible” and the “combination effect with Norfloxacin” value ([2]; MRSA ATCC BAA-1764) was “Susceptible”. For the same compound, the “combination effect with Oxacillin” value ([2]; MRSA ATCC BAA-1764) was “No Synergy”, the “combination effect with Tetracycline” value ([2]; MRSA ATCC BAA-1764) was “Susceptible” and the “combination effect with Vancomycin” value ([2]; MRSA ATCC BAA-1764) was “Susceptible”. The “combination effect with Gentamycin” value ([2]; MRSA ATCC BAA-1766) was “Susceptible”, the “combination effect with Norfloxacin” value ([2]; MRSA ATCC BAA-1766) was “Susceptible” and the “combination effect with Oxacillin” value ([2]; MRSA ATCC BAA-1766) was “No Synergy”. For the same compound, the “combination effect with Tetracycline” value ([2]; MRSA ATCC BAA-1766) was “Susceptible” and the “combination effect with Vancomycin” value ([2]; MRSA ATCC BAA-1766) was “Susceptible”.
